Where two headings read alike, the source gives them in different places.
Legend:
PLA2G16 = biological target: T1, PLA2G16 (Homo sapiens, UniProt P53816); experiment: Enzyme activity assay for PLA2G16 (Red/Green BODIPY PC-A2 fluorescence); type: biochemical; conditions: His-tagged PLA2G16, 4 min pre-incubation, 2 nM to 50 μM; read-out: IC50 values of the compounds determined in the enzyme activity assay for PLA2G16
T1 construct: Hexa-His (N); made in house; host or cells: E. coli BL21(DE3)
T1 sequence (P53816 1-162): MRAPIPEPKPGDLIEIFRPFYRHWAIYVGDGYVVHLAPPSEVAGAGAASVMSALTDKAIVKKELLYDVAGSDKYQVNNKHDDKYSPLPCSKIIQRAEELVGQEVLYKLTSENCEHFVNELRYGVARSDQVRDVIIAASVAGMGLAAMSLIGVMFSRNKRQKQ
In short: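 IC50 from non-linear fits of fluorescence rise (480/530 nm, 10 min) after adding Red/Green BODIPY PC-A2 mixed with DOPC/DOPG/cholesterol liposomes. Recombinant His-tagged human enzyme, bacterially expressed, was first exposed to inhibitor (2 nM–50 μM final) for 4 min in 50 mM Tris pH 8.5, 100 mM NaCl, 5 mM glutathione.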

[1] = system: picornaviruses (CVB1, HRV-A2, HRV-A23, EV-68); experiment: Anti-picornavirus cytopathic effect (CPE) reduction assay on HeLa H1 cells; type: cell-based; conditions: Enterovirus B, HeLa H1, 48 h
In short: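 Cytopathic-effect protection: EC50 from non-linear regression of cell viability (CellTiterBlue, 560/590 nm) 48 h post-infection, scaled between infected and mock-infected vehicle wells. Compound dilutions added to HeLa H1 cells 2 h before virus (MOI causing complete CPE within 2 days), in DMEM + 2% FBS; categories average the four viruses.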

[2] = HeLa H1 cells, 48 h, category from averaging the EC50 values from four picornaviruses (CVB1, HRV-A2, HRV-A23, EV68), read-out: EC50 values of the compounds determined in the anti-picornavirus assay

O=C(NC1CCN(C(=O)NC2CCCC2)CC1)C(=O)[C@H]1CCC(=O)N1Cc1ccccc1 [FP 325, 4-{2-[(2R)-1-Benzyl-5-oxopyrrolidin-2-yl]-2-oxoacetamido}-N-cyclopentylpiperidine-1-carboxamide]
IC50 (PLA2G16): < 1000 nM | EC50 [1, 2]: < 1000 nM

CC(C)CC(C(=O)C(=O)NCC1CC1)N(C=O)C[C@H]1CCOC1 (stereo partly drawn) [FP 65, N-(Cyclopropylmethyl)-5-methyl-2-oxo-3-(N-{[(3R)-oxolan-3-yl]methyl}formamido) hexanamide]
IC50 (PLA2G16): < 1000 nM | EC50 [1, 2]: 1000 to 10000 nM

O=C(NCC1CCOCC1)C(=O)C1CCC(=O)N1Cc1ccc(Cl)cc1 (centres unmarked) [FP 235, 2-{1-[(4-Chlorophenyl)methyl]-5-oxopyrrolidin-2-yl}-N-[(oxan-4-yl)methyl]-2-oxoacetamide]
IC50 (PLA2G16): < 1000 nM | EC50 [1, 2]: 1000 to 10000 nM

CCC(C(=O)C(=O)NCC1CCCCC1)N(C=O)CC1CCN(C(=O)OC(C)(C)C)CC1 (centres unmarked) [FP 59, tert-Butyl 4-[(N-{1-[(cyclohexylmethyl)carbamoyl]-1-oxobutan-2-yl} formamido)methyl]-piperidine-1-carboxylate]
IC50 (PLA2G16): < 1000 nM | EC50 [1, 2]: 1000 to 10000 nM

COc1ccccc1N(C=O)C(C)C(=O)C(=O)NCc1ccccn1 (centres unmarked) [FP 96, 3-[N-(2-Methoxyphenyl)formamido]-2-oxo-N-[(pyridin-2-yl)methyl]butanamide]
IC50 (PLA2G16): < 1000 nM | EC50 [1, 2]: > 10000 nM

O=C(COCc1ccccc1)C(=O)NCC1CC1 [FP 128, 3-(Benzyloxy)-N-(cyclopropylmethyl)-2-oxopropanamide]
IC50 (PLA2G16): < 1000 nM | EC50 [1, 2]: < 1000 nM

CC(C(=O)C(=O)NCCOC1CCCCC1)N(C=O)C1CCCCC1 (centres unmarked) [FP 55, 3-(N-Cyclohexylformamido)-N-[2-(cyclohexyloxy)ethyl]-2-oxobutanamide]
IC50 (PLA2G16): < 1000 nM | EC50 [1, 2]: < 1000 nM

CC(C(=O)C(=O)NCC1CCCCC1)N(C=O)[C@H]1CC[C@@H](NC(=O)OC(C)(C)C)CC1 (some centres unmarked) [FP 54, tert-Butyl N-[(1s,4s)-4-(N{1-[(cyclohexylmethyl)carbamoyl]-1-oxopropan-2-yl}-formamido)cyclohexyl]carbamate]
IC50 (PLA2G16): < 1000 nM | EC50 [1, 2]: > 10000 nM

CC(C(=O)C(=O)NCC1CCCC1)N(C=O)Cc1ccccc1 (centres unmarked) [FP 200, 3-(N-Benzylformamido)-N-(cyclopentylmethyl)-2-oxobutanamide]
IC50 (PLA2G16): < 1000 nM | EC50 [1, 2]: < 1000 nM

COc1ccccc1N(C=O)C(C)C(=O)C(=O)NC(C)C (centres unmarked) [FP 28, 3-[N-(2-Methoxyphenyl)formamido]-2-oxo-N-(propan-2-yl)butanamide]
IC50 (PLA2G16): < 1000 nM | EC50 [1, 2]: 1000 to 10000 nM

Cc1ccccc1S(=O)(=O)NC(C)C(=O)C(=O)NCC1CC1 (centres unmarked) [FP 190, N-(Cyclopropylmethyl)-3-(2-methylbenzenesulfonamido)-2-oxobutanamide]
IC50 (PLA2G16): < 1000 nM | EC50 [1, 2]: 1000 to 10000 nM

O=CN(Cc1ccccc1)[C@@H](Cc1cn(C(c2ccccc2)(c2ccccc2)c2ccccc2)cn1)C(=O)C(=O)NCC1CC1 [FP 117, (3S)-3-(N-Benzylformamido)-N-(cyclopropylmethyl)-2-oxo-4-[1-(triphenylmethyl)-1H-imidazol-4-yl]butanamide]
IC50 (PLA2G16): < 1000 nM | EC50 [1, 2]: < 1000 nM

COc1ccccc1N(C=O)C(C)C(=O)C(=O)NC(C)(C)C (centres unmarked) [FP 75, N-tert-Butyl-3-[N-(2-methoxyphenyl)formamido]-2-oxobutanamide]
IC50 (PLA2G16): < 1000 nM | EC50 [1, 2]: 1000 to 10000 nM

O=CN(CC1CCOCC1)C(CCc1ccccc1)C(=O)C(=O)NCC1CC1 (centres unmarked) [FP 68, N-(Cyclopropylmethyl)-3-{N-[(oxan-4-yl)methyl]formamido}-2-oxo-5-phenylpentanamide]
IC50 (PLA2G16): < 1000 nM | EC50 [1, 2]: < 1000 nM

COc1ccccc1N(C=O)C(C)C(=O)C(=O)NCC1CCCCC1 (centres unmarked) [FP 25, N-(Cyclohexylmethyl)-3-[N-(2-methoxyphenyl)formamido]-2-oxobutanamide]
IC50 (PLA2G16): < 1000 nM | EC50 [1, 2]: < 1000 nM

Cc1ccncc1C(=O)NC(C)C(=O)C(=O)NCC1CCCCC1 (centres unmarked) [FP 209, N-(Cyclohexylmethyl)-3-[(4-methylpyridin-3-yl)formamido]-2-oxobutanamide]
IC50 (PLA2G16): < 1000 nM | EC50 [1, 2]: 1000 to 10000 nM

CC(C)CNC(=O)C(=O)C(C)N(C=O)CC1CC1 (centres unmarked) [FP 16, 3-[N-(cyclopropylmethyl)formamido]-N-(2-methylpropyl)-2-oxobutanamide]
IC50 (PLA2G16): < 1000 nM | EC50 [1, 2]: 1000 to 10000 nM

COc1ccccc1N(C=O)C(C)C(=O)C(=O)NCC1CC1 (centres unmarked) [FP 105, N-(Cyclopropylmethyl)-3-[N-(2-methoxyphenyl)formamido]-2-oxobutanamide]
IC50 (PLA2G16): < 1000 nM | EC50 [1, 2]: 1000 to 10000 nM

CC(C)CN(C=O)C(C(=O)C(=O)NCC1CC1)C(C)C (centres unmarked) [FP 30, N-(Cyclopropylmethyl)-4-methyl-3-[N-(2-methylpropyl)formamido]-2-oxopentanamide]
IC50 (PLA2G16): < 1000 nM | EC50 [1, 2]: 1000 to 10000 nM

COC(=O)CNC(=O)C(=O)C(C)N(C=O)Cc1ccccc1 (centres unmarked) [FP 56, Methyl 2-[3-(N-benzylformamido)-2-oxobutanamido]acetate]
IC50 (PLA2G16): < 1000 nM | EC50 [1, 2]: > 10000 nM

Cc1ccc(CN2C(=O)CCC2C(=O)C(=O)NC2CC2)s1 (centres unmarked) [FP 277, N-Cyclopropyl-2-{1-[(5-methylthiophen-2-yl)methyl]-5-oxopyrrolidin-2-yl}-2-oxoacetamide]
IC50 (PLA2G16): < 1000 nM | EC50 [1, 2]: 1000 to 10000 nM

CC(NC(=O)c1ccccc1)C(=O)C(=O)NCC1CCCCC1 (centres unmarked) [FP 179, N-(Cyclohexylmethyl)-2-oxo-3-(phenylformamido)butanamide]
IC50 (PLA2G16): < 1000 nM | EC50 [1, 2]: < 1000 nM

CC(C(=O)C(=O)NCCOc1ccc(C(N)=O)cc1)N(C=O)C1CCCCC1 (centres unmarked) [FP 114, 4-{2-[3-(N-Cyclohexylformamido)-2-oxobutanamido]ethoxy}benzamide]
IC50 (PLA2G16): < 1000 nM | EC50 [1, 2]: > 10000 nM

CC(C(=O)C(=O)NCCOc1ccccc1)N(C=O)C1CCCCC1 (centres unmarked) [FP 109, 3-(N-Cyclohexylformamido)-2-oxo-N-(2-phenoxyethyl)butanamide]
IC50 (PLA2G16): < 1000 nM | EC50 [1, 2]: < 1000 nM

O=C(NC1CCC1)C(=O)[C@H]1CCC(=O)N1Cc1ccccc1 [FP 237, 2-[(2R)-1-Benzyl-5-oxopyrrolidin-2-yl]-N-cyclobutyl-2-oxoacetamide]
IC50 (PLA2G16): < 1000 nM | EC50 [1, 2]: < 1000 nM

O=C(NCC1CCCCC1)C(=O)C1CCC(=O)N1Cc1nccs1 (centres unmarked) [FP 311]
IC50 (PLA2G16): < 1000 nM | EC50 [1, 2]: < 1000 nM

CC(C)NC(=O)C(=O)C(C)N(C=O)CC(C)(C)C (centres unmarked) [FP 29, 3-[N-(2,2-Dimethylpropyl)formamido]-2-oxo-N-(propan-2-yl)butanamide]
IC50 (PLA2G16): < 1000 nM | EC50 [1, 2]: 1000 to 10000 nM

CC(NC(=O)Cc1ccccc1)C(=O)C(=O)NCC1CC1 (centres unmarked) [FP 167, N-(Cyclopropylmethyl)-2-oxo-3-(2-phenylacetamido)butanamide]
IC50 (PLA2G16): < 1000 nM | EC50 [1, 2]: > 10000 nM

COc1ccccc1N(C=O)C(C)C(=O)C(=O)NCc1ccncc1 (centres unmarked) [FP 90, 3-[N-(2-Methoxyphenyl)formamido]-2-oxo-N-[(pyridin-4-yl)methyl]butanamide]
IC50 (PLA2G16): < 1000 nM | EC50 [1, 2]: > 10000 nM

O=C(NCC1(CO)CC1)C(=O)C1CCC(=O)N1Cc1ccc(Cl)cc1 (centres unmarked) [FP 276, 2-{1-[(4-Chlorophenyl)methyl]-5-oxopyrrolidin-2-yl}-N-{[1-(hydroxymethyl)cyclopropyl]-methyl}-2-oxoacetamide]
IC50 (PLA2G16): < 1000 nM | EC50 [1, 2]: 1000 to 10000 nM

N#CCCNC(=O)C(=O)[C@H]1CCC(=O)N1Cc1ccccc1 [FP 262, 2-[(2R)-1-Benzyl-5-oxopyrrolidin-2-yl]-N-(2-cyanoethyl)-2-oxoacetamide]
IC50 (PLA2G16): < 1000 nM | EC50 [1, 2]: 1000 to 10000 nM

O=C(NCC1CCCCC1)C(=O)C1CCC(=O)N1Cc1ccc2c(c1)CNC2=O (centres unmarked) [FP 244, N-(Cyclohexylmethyl)-2-oxo-2-{5-oxo-1-[(1-oxo-2,3-dihydro-1H-isoindol-5-yl)methyl]-pyrrolidin-2-yl}acetamide]
IC50 (PLA2G16): < 1000 nM | EC50 [1, 2]: 1000 to 10000 nM

NC(=O)c1cccc(CN2C(=O)CCC2C(=O)C(=O)NCC2CCCCC2)c1 (centres unmarked) [FP 249, 3-[(2-{[(Cyclohexylmethyl)carbamoyl]carbonyl}-5-oxopyrrolidin-1-yl)methyl]benzamide]
IC50 (PLA2G16): < 1000 nM | EC50 ([1]; read-out: EC50 values of the compounds determined in the anti-picornavirus assay, HeLa H1 cells, 48 h, category from averaging the EC50 values from four picornaviruses (CVB1, HRV-A2, HRV-A23, EV68)): < 1000 nM

O=C(NCC1CC1)C(=O)C1CCC(=O)N1CCc1ccccc1 (centres unmarked) [FP 253, N-(Cyclopropylmethyl)-2-oxo-2-[5-oxo-1-(2-phenylethyl)pyrrolidin-2-yl]]
IC50 (PLA2G16): < 1000 nM | EC50 [1, 2]: 1000 to 10000 nM

CC(C)C(OCC1CCOCC1)C(=O)C(=O)NCC1CC1 (centres unmarked) [FP 137, N-(Cyclopropylmethyl)-4-methyl-3-[(oxan-4-yl)methoxy]-2-oxopentanamide]
IC50 (PLA2G16): < 1000 nM | EC50 [1, 2]: > 10000 nM

COc1ccccc1N(C=O)C(C)C(=O)C(=O)N[C@@H](C)C(C)C (stereo partly drawn) [FP 108, 3-[N-(2-Methoxyphenyl)formamido]-N-[(2S)-3-methylbutan-2-yl]-2-oxobutanamide]
IC50 (PLA2G16): < 1000 nM | EC50 [1, 2]: < 1000 nM

O=C(NCCCc1nccs1)C(=O)C1CCC(=O)N1Cc1ccccc1 (centres unmarked) [FP 229, 2-(1-Benzyl-5-oxopyrrolidin-2-yl)-2-oxo-N-[3-(1,3-thiazol-2-yl)propyl]acetamide]
IC50 (PLA2G16): < 1000 nM | EC50 [1, 2]: < 1000 nM
